Literature values, collected in patent publication US20230192588A1, “CANNABIDIOLIC ACID (CBDA) DERIVATIVES AND USES THEREOF” (YISSUM RESEARCH DEVELOPMENT COMPANY OF THE HEBREW …, priority 2020, published 2023).

Legend:
rats [1] = conditions: compared to CBDA, 5-HT1A receptor-dependent manner
rats [2] = conditions: compared to CBDA, 5-HT1A receptor-dependent manner; remark: listed apart in the source
rat models = conditions: oral ingestion of a low dose (1 mg/kg); two rat models

C=C(C)[C@@H]1CCC(C)=C[C@H]1c1c(O)cc(CCCCC)c(C(=O)OC)c1O [HU-580, cannabidiolic acid methyl ester]
potency in suppressing signs of both acute and anticipatory nausea (rats [1]): greater potency than CBDA | potency in suppressing signs of stress-induced anxiety (rats [2]): greater potency than CBDA | anti-depressant effect (rat models): potent anti-depressant effect
